# Earlier results in US9445940B2, “System and method for inducing hypothermia with control and determination of catheter pressure” (Zoll Circulation, Inc., priority 2003, dated 2016).
# System: shivering threshold
# Conditions: stated as believed, no experiment by the applicant
structure (smiles),measurement,value
CCOC(=O)C1(c2ccccc2)CCN(C)CC1 [Meperidine],decrease of shivering threshold relative to vasoconstriction threshold,twice as much as the vasoconstriction threshold
